Columns and labels:
[1] = molecular target: T1, membrane guanylyl cyclase (guanylyl cyclase type B, GC-B) (Homo sapiens, UniProt P20594); assay: CNP-induced cyclic GMP accumulation in BE-2(C) neuroblastoma cells
T1 sequence (P20594 23-1047): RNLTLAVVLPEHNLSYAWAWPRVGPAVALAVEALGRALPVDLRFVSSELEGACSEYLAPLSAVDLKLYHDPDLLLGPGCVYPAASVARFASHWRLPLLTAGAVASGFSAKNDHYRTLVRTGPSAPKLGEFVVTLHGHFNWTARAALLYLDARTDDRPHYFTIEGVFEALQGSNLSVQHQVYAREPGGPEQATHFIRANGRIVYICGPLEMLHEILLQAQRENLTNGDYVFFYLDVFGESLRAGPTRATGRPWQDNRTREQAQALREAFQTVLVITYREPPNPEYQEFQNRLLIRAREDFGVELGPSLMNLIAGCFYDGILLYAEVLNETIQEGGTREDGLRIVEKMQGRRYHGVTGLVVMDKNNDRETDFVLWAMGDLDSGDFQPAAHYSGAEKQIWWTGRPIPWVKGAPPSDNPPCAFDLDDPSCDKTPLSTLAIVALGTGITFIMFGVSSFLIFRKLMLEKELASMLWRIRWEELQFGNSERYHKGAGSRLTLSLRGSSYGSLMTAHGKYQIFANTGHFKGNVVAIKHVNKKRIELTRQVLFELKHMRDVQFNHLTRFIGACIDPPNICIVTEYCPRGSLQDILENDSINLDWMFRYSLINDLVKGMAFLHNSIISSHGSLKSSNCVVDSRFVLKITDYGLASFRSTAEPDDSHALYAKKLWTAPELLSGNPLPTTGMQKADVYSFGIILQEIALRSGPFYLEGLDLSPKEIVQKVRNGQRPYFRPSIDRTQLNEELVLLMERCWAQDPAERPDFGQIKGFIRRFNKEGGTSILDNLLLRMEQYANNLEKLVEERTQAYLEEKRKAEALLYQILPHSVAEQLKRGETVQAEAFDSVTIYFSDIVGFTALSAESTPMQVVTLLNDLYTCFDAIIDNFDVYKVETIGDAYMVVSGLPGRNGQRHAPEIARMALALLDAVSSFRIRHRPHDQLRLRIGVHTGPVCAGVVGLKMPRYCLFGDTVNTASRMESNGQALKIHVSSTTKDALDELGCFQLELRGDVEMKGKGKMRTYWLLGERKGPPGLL

[2] = molecular target: T2, membrane guanylyl cyclase (guanylyl cyclase type A, GC-A) (Homo sapiens, UniProt P16066); assay: ANP-induced cyclic GMP accumulation in BE-2(C) neuroblastoma cells
T2 sequence (P16066 33-1061): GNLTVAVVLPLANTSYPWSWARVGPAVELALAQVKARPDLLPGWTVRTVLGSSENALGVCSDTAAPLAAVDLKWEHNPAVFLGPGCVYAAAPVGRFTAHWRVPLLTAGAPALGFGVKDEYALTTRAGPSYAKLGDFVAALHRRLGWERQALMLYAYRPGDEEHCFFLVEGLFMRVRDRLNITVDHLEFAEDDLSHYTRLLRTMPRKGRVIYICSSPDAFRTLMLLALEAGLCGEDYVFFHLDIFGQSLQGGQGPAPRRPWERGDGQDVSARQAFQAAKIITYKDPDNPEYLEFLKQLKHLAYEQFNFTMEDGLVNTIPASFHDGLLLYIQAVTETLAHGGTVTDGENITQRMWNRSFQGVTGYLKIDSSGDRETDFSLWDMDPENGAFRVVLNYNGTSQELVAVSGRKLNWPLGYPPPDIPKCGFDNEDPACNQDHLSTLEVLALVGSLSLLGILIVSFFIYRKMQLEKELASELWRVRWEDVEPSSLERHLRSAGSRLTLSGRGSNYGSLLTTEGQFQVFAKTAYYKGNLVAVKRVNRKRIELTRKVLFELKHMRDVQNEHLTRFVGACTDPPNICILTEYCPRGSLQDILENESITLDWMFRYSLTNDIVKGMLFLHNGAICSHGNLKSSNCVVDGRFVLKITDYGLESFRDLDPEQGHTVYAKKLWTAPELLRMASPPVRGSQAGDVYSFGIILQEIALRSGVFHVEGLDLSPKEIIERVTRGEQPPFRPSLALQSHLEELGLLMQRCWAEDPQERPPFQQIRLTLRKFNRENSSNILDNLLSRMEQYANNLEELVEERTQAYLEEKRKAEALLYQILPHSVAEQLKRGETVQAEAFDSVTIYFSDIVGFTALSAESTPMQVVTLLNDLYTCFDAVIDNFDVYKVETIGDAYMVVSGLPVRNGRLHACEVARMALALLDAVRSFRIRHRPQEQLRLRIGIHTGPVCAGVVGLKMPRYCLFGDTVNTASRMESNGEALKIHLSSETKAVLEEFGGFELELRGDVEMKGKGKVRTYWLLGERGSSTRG

Q: Which results are given for `Cn1c2c(c(=O)n(C)c1=O)C(c1cccc(Br)c1)C1=C(N2)c2ccccc2C1=O` (centres unmarked) [compound IIb]?
A: IC50 [1]: 11.2 µM; IC50 [2]: 8.4 µM

Reference: patent US20100035867A1 (priority 2006, published 2010)
